No end group written: not given here.
Key:
CA125 protein [1] = target: T1, CA125 protein (Homo sapiens, UniProt Q8WXI7); experiment: Binding affinity Kd, synthesized peptide vs fluorescently labeled protein, Monolith NT.115; settings: CA125 protein labeled RED-NHS, read-out: binding affinity Kd (dissociation constant)
T1 construct: purchased R&D Systems Inc, MN, USA
T1 sequence (Q8WXI7 12660-12923 limits assumed): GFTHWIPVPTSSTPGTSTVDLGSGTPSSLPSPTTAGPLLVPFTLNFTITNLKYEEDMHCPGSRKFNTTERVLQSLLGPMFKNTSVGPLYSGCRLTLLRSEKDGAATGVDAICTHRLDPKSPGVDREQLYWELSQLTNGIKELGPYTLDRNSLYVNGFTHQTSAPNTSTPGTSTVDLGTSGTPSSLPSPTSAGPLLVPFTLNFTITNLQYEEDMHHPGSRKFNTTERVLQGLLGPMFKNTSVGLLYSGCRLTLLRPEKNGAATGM
Method: (§1) In order to evaluate the binding affinity and specificity of the discovered SEQ ID NO: 1 peptide to the CA125 protein, and the binding affinity and specificity of the SEQ ID NO: 2 peptide to HE4, ELISA assay was performed according to the manufacturer's instructions using CA125 protein (R&D Systems Inc, MN, USA), HE4 protein (Sinobiological, PA, USA), HRP-conjugated M13 antibody (Sinobiological, PA, USA), and TMB solution (Thermo Scientific, MA, USA). In addition, to measure the binding affinity Kd (dissociation constant), the discovered peptides of SEQ ID NO: 1 and SEQ ID NO: 2 were synthesized (Biostem, Suwon, Korea), CA125 protein and HE4 protein were each fluorescently labeled using Protein Labeling kit RED-NHS 2nd Generation (NanoTemper Technologies, Munich, Germany). Afterwards, the binding affinity between peptide and protein was measured using Monolith NT.115 (NanoTemper Technologies, Munich, Germany) according to the manufacturer's instructions.

CA125 protein [2] = target: T1, CA125 protein; experiment: ELISA assay of binding and specificity to CA125 protein; settings: HRP-conjugated M13 antibody, TMB, FIG. 1
Method: as §1

HE4 protein [3] = target: T2, HE4 protein (Homo sapiens, UniProt Q14508); experiment: Binding affinity Kd, synthesized peptide vs fluorescently labeled protein, Monolith NT.115; settings: HE4 protein labeled RED-NHS, read-out: binding affinity Kd (dissociation constant)
T2 construct: purchased Sinobiological, PA, USA
T2 sequence (Q14508 31-124): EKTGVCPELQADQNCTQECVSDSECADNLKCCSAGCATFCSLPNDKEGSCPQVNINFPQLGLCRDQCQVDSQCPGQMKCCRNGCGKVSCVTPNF
Method: as §1

HE4 protein [4] = target: T2, HE4 protein; experiment: ELISA assay of binding and specificity to HE4 protein; settings: HRP-conjugated M13 antibody, TMB, FIG. 1
Method: as §1

Row | Substance | Kd (CA125 protein [1]) | specific binding to the CA125 protein (CA125 protein [2]) | Kd (HE4 protein [3]) | specific binding to the HE4 protein (HE4 protein [4])
1 | HTHGAARVPDHR [SEQ ID NO: 1, HTHGAARVPDHR] | 0.0114 ± 0.00423 µM | specifically bound |  | 
2 | LGSKPIN [SEQ ID NO: 2, LGSKPIN] |  |  | 15.3 ± 12 µM | specifically bound

From patent publication US20240353411A1, “HE4 DETECTING PEPTIDE AND USE THEREOF” (Ajou University Industry-Academic Cooperation Foundation, priority 2022, published 2024)
